Patent US20100178365A1, “EPICATECHIN DEFICIENT GREEN TEA” (priority 2007, published 2010)

What was measured:
[1] = intraperitoneal glucose tolerance test after intravenous epicatechin (FIG. 1); assay type: in vivo; details: rats; epicatechin intravenously 30 min before glucose loading 2 g/kg
Method: Each epicatechin was injected intravenously 30 min before the glucose loading.

KATP channels = test: inhibition of KATP channels and their ATP/PIP sensitivity; assay type: biochemical; details: for effect on KATP channels: via allosteric interactions with phospholipids of the lipid membrane
Method: EGCG and ECG with gallate ester groups inhibited KATP channels via allosteric interactions with phospholipids of the lipid membrane. But the effective EGCG concentration was more than 10 μM. Further, EGCG is the only green tea epicatechin that decreases the sensitivity of ATP and PIP to the KATP channel. By this mechanism, we concluded that EGCG caused decrease in insulin secretion in response to glucose in the β-cell of pancreas. Patients with diabetes or people with a risk factor for diabetes should be careful because the effective concentration of EGCG for this mechanism could be 1-10 μM, which is an achievable concentration when a person drinks 2-8 cups of green tea while fasting.

[2] = test system: cultured adipocytes, myocytes and hepatocytes; test: glucose uptake ability at cultured cells (FIG. 3); assay type: cell-based; details: for normal glucose uptake mechanism after a meal: hepatocytes, adipocytes and muscle cells
Description: We can see that basal glucose uptake ability and insulin stimulated glucose uptake ability decreased based on the given EGCG concentration.

[3] = adipocytes, myocytes and hepatocytes, based on the given EGCG concentration

SMILES	blood glucose concentration during intraperitoneal glucose tolerance test [1]	effect on KATP channels (KATP channels)	normal glucose uptake mechanism after a meal [2]	effective concentration for KATP channel inhibition (KATP channels)	sensitivity of ATP and PIP to the KATP channel (KATP channels)	effective concentration for decreasing ATP and PIP sensitivity of the KATP channel (KATP channels; stated as 'could be')	blood EGCG level at which the glucose uptake inhibition can occur [2]	basal glucose uptake ability [2, 3]	insulin stimulated glucose uptake ability [2, 3]
O=C(O[C@@H]1Cc2c(O)cc(O)cc2O[C@@H]1c1ccc(O)c(O)c1)c1cc(O)c(O)c(O)c1 [ECG, (−)-epicatechin-3-gallate]	High blood glucose level	inhibited	inhibited	–	–	–	–	–	–
O=C(O[C@@H]1Cc2c(O)cc(O)cc2O[C@@H]1c1cc(O)c(O)c(O)c1)c1cc(O)c(O)c(O)c1 [EGCG, (−)-epigallocatechin-3-gallate]	High blood glucose level	inhibited	inhibited	more than 10 μM	decreases	1 to 10 µM	lower than 10 μM	decreased	decreased
